Source: patent US4284633A, “Derivatives of xanthine” (Boehringer Mannheim GmbH, priority 1979, dated 1981)

System: antigen induced bronchospasm
Experiment: inhibition of antigen induced bronchospasm in passively sensitized guinea pigs
Format: in vivo, guinea pig
Conditions: 5 minutes before antigen, evaluated 3 minutes after antigen
Experimental: Specifically, tests were run as follows:
The antigen is twice recrystallized egg albumin.
The animals were bled and the pooled serum stored at -20° C.
Injections of 0.5 ml antiserum of 1:50 dilution were given i.v. 24-48 h before challenge.
Guinea pigs were anaesthetized with pentobarbital sodium (40 mg/kg i.p.). Cannulae were tied into the trachea and the jugular vein and the lung inflated with a pump at a rate of 72 strokes/min and a constant stroke volume of 6-8 ml.
Bronchospasm, provoked by injecting ovalbumin i.v. was measured as described by Konzett, H. and R. Rossler, "Versuchsanordnung und Untersuchungen an der Bronchialmuskulatur" Naunyn-Schmiedebergs, Arch. exp. Path. Pharmak.
The drugs were applied intravenously 5 minutes before the antigen.
For calculation the following formula was used: [formula] b=Bronchospasm after antigen injection, measured in mm from tracing m=maximum height of tracing in mm with arm of the treachea-cannula clamped
a=pre injection height of the tracing in mm

| Structure (SMILES) | % inhibition Br Sp (antigen induced bronchospasm) (0.38 mg/kg i.v.) | % inhibition Br Sp (antigen induced bronchospasm) (0.1 mg/kg i.v.) | other results |
| --- | --- | --- | --- |
| Cn1c(=O)c2[nH]cnc2n(C)c1=O [Aminophylline, reference compound] | – | – | % inhibition Br Sp (antigen induced bronchospasm) (24 mg/kg i.v.): 29% |
| CC(=O)NC1CCN(CCCn2cnc3c2c(=O)n(C)c(=O)n3C)CC1 [Example 2c, 7-[3-(4-acetamidopiperidino)-propyl]-theophylline] | 37% | – | – |
| Cc1ccccc1C(=O)NC1CCN(CCCn2cnc3c2c(=O)n(C)c(=O)n3C)CC1 [Example 2d, 7-{3-[4-(2-methylbenzamido)-piperidino]-propyl}-theophylline] | – | 60% | – |
| Cn1c(=O)c2c(ncn2CCCN2CCC(NC(=O)Cc3ccccc3)CC2)n(C)c1=O [Example 2e, 7-[3-(4-phenylacetamidopiperidino)-propyl]-theophylline] | 68% | – | – |
| Cn1c(=O)c2c(ncn2CCCN2CCC(NC(=O)c3ccccc3O)CC2)n(C)c1=O [Example 4a, 7-{3-[4-(2-hydroxybenzamido)-piperidino]-propyl}-theophylline] | – | 82% | – |
| Cn1c(=O)c2c(ncn2CCCN2CCC(NC(=O)c3cccs3)CC2)n(C)c1=O [Example 4d, 7-{3-[4-(thiophene-2-carboxamido)-piperidino]-propyl}-theophylline] | – | 38% | – |
